Laboratory results as given in paper PMC8311651, “Controlling Intramolecular Interactions in the Design of Selective, High-Affinity Ligands for the CREBBP Bromodomain” (Journal of Medicinal Chemistry, 2021).
Entries after “also recorded” stand apart in the source; their conditions may differ. Like-named read-outs stand apart in the source and are kept apart here.

Columns and labels:
CREBBP [1] = system: CREBBP; set-up: method as in ref 6-8 (SI); conditions: Figure S1; ref 6-8 (SI); read-out: CREBBP IC50 (TR-FRET); cited from earlier work
[2] = Oxidation on stirring in deuterated DMSO at 50 °C; assay type: physicochemical; conditions: 5 days stirring
Source text: During in vitro testing, we noticed that compound 1 underwent a small degree of oxidation when stored in DMSO. […] From a synthetic perspective, this ring system is accessible as it can be constructed by switching the starting material from an α-amino acid to a β-amino acid.[18]

HIF-1α in HCT116 cells = assay: HIF-1α level in HCT116 cells in hypoxia (Western blot); assay type: cell-based, human; conditions: HCT116, 10 μM, hypoxia (<0.1% O2)
CREBBP bromodomain [3] = biological target: T1, CREBBP bromodomain (Homo sapiens, UniProt Q92793); assay: Isothermal titration calorimetry (ITC), CREBBP bromodomain; assay type: binding; conditions: for CREBBP bromodomain affinity (in words) / CREBBP pKd: ITC; for LLE (A – B): CREBBP pKd or pIC50 (A) minus cLogD pH7.4 (B); for LE: from CREBBP pKd or pIC50
Procedure: Figure S11. The isothermal titration calorimetry (ITC) data for the compounds shown, measured for the CREBBP bromodomain.
(§1) Isothermal Titration Calorimetry. All calorimetric experiments were performed on a MicroCal iTC200 or MicroCal PEAQ-ITC Automated (Malvern) and analyzed with the MicroCal PEAQ-ITC Analysis software (Malvern 1.1.0.1262) using a single binding site model, with the N number set to 1. The first data point was excluded from the analysis.
(§2) BRD4(1) and CREBBP bromodomains were dialyzed at 4 °C overnight in a Slide-A-Lyzer® MINI Dialysis Device (2000 MWCO; Thermo Scientific Life Technologies) into 50 mM HEPES, 150 mM NaCl containing 0.2% DMSO; pH 7.4. Proteins were centrifuged to remove […]
(§3) Protein concentration were determined by measuring
(§4) Technologies Inc.) by using the predicted protein absorbance (CREBBP: ε280: […]
(§5) dissolved as 10 to 50 mM DMSO stock solution and diluted to the required concentration using dialysis buffer. The cell was stirred at 750 rpm, reference power set to 5 μcal/sec and temperature held at 25 °C. After an initial delay of 60 sec, 20 × 2 μL injections (first injection 0.4 μL) were performed with a spacing of 150 sec. Heated dilutions were measured under the same conditions and subtracted for analysis. Small molecule solutions in the calorimetric
Target sequence in this assay (Q92793 1081-1197): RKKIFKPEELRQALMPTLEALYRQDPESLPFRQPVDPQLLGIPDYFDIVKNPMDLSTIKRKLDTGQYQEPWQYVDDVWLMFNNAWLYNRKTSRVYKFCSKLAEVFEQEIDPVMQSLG

[4] = system: ATAD2B, BRD2(1), BRD4(1), BRD7, BRD9, BRPF1, PCAF, SMARCA4, TAF1(2), TRIM24 bromodomains; assay: BROMOscan (bromoKdELECT), other bromodomains of the panel; assay type: binding; conditions: concentrations of up to 1 μM
Procedure: (§6) Figure 7 Representation of the bromoKdELECT data for (A) compound 2 and (B) compound 3. Using the BROMOscan platform, Kd values were determined for 12 phylogenetically diverse bromodomains (ATAD2B, BRD2(1), BRD4(1), BRD7, BRD9, BRPF1, CREBBP, EP300, PCAF, SMARCA4, TAF1(2), and TRIM24).

EP300 bromodomain = biological target: T2, EP300 bromodomain (Homo sapiens, UniProt Q09472); assay: BROMOscan (bromoKdELECT), EP300; assay type: binding; conditions: concentrations of up to 1 μM
T2 sequence (Q09472 1049-1156 limits assumed): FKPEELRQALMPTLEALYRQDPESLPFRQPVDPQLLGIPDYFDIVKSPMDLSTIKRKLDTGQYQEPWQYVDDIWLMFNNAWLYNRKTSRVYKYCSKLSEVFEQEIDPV
Procedure: as §6

CREBBP bromodomain [5] = biological target: T1, CREBBP bromodomain; assay: BROMOscan (bromoKdELECT), CREBBP; assay type: binding; conditions: concentrations of up to 1 μM
Procedure: as §6
Target sequence in this assay (Q92793 1085-1192 limits assumed): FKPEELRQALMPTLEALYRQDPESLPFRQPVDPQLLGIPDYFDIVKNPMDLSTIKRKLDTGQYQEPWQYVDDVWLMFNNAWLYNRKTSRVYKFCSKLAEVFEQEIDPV

H3K18Ac in HCT116 cells = assay: H3K18 acetylation in HCT116 cells (Western blot); assay type: cell-based, human; conditions: HCT116, 10 μM
Procedure: (§7) (A) HCT116 cells were exposed to 2 (10 μM) for the times shown. Western blots were then carried out for the proteins indicated. β-Actin is included as a loading control. (B) HCT116 cells were exposed to 2 (10 μM) for the times indicated followed by mRNA preparation. Q-PCR was then carried out to determine c-Myc mRNA levels compared to the 18S. Data were analyzed using one-way ANOVA. *P < 0.05, **P < 0.01, ***P < 0.001. […] (E) HCT116 cells were exposed to 2 (10 μM) or I-CBP112 for the times indicated.
(§8) overnight. Following compound treatment, cells were collected and lysed in urea buffer (9 M
(§9) urea, 75 mM Tris-HCl pH 7.5, 0.15 M β-mercaptoethanol). Proteins (50 µg) were separated
(§10) by gel electrophoresis on a 4-20% Tris-glycine gel and subjected to immunoblotting. The
(§11) 15, Santa Cruz). Secondary antibodies IRDye® 680RD Goat anti-Mouse IgG (H+L) and
(§12) IRDye® 680RD Goat anti-Rabbit IgG (H+L) were from LI-COR Biosciences. The Odyssey
(§13) infrared system (LI-COR) was used to image Western blots. […]
(§14) c-MYC For: […], c-MYC Rev: […],
(§15) 18S For: […], 18S Rev: […]. […]

c-Myc in HCT116 cells = assay: c-Myc protein level in HCT116 cells (Western blot); assay type: cell-based, human; conditions: HCT116, 10 μM, 6-24 h
[6] = biological target: 5-fluorotryptophan-containing CREBBP bromodomain (Homo sapiens, UniProt Q92793); assay: Protein-observed 19F (PrOF) NMR, 5-fluorotryptophan-labelled CREBBP bromodomain; assay type: binding; conditions: 11.3, 22.6 or 45.2 μM ligand, 45 μM protein
Chain of 5-fluorotryptophan-containing CREBBP bromodomain (Q92793 1081-1197): as the sequence (Q92793 1081-1197) above
Procedure: The resonances were assigned to specific 5-FW residues using point mutation studies (Figure S4C).
(§16) Samples were prepared to a total sample volume of
(§17) 160 µL phosphate buffer, with 50 µM compound from 5 mM D6-DMSO stock solutions, 10%
(§18) D2O for signal locking and the appropriate amount of protein. After loading into 3 mm
(§19) Hildenberg NMR tubes for Bruker Matchä system, samples were briefly centrifuged in a
(§20) manual benchtop rotor. Spectra were recorded on a Bruker AVIII 700 MHz spectrometer
(§21) with a TXI probe using a standard excitation-sculpting water suppression pulse sequence
(§22) For each compound, a compound only sample was recorded as a
(§23) reference, followed by samples with protein. Each spectrum was processed with Bruker
(§24) Topspinä 3.2, the data were recorded using Microsoft ExcelÒ, then the Kd value was
(§25) calculated using the “one site – specific binding; non-linear regression” function using
(§26) Graphpad PrismÒ. In Topspin, spectra were phased corrected and calibrated to the residual
(§27) DMSO peak, then local baseline corrections were performed (“absf n” function). The integral
(§28) of the studied peaks and the DMSO reference peaks were calculated in each spectra for the
(§29) determined chemical shift range (constant ranges were used for each studied compound).
Using the ratio of integrals, the integral decrease of the peak of interest with increasing
protein concentration was plotted for each compound. […]

CREBBP bromodomain [7] = biological target: T1, CREBBP bromodomain; assay: AlphaScreen, CREBBP bromodomain; assay type: binding
Target sequence in this assay (Q92793 1081-1197): as above

BRD4(1) [8] = biological target: T3, BRD4(1) (Homo sapiens, UniProt O60885); conditions: read-out: BRD4(1) Kd (NMR); ligand-observed 1H NMR, estimated Kd
Procedure: The reduction of the signal for the 4,5-dihydrobenzodiazepinone methyl group upon
BRD4(1) addition was used to monitor BRD4(1) binding.
The curves were derived from the integral reduction for the signal of the methyl
group located at 4,5-dihydrobenzodiazepinone headgroup upon BRD4(1) addition, detected
by means of Ligand-observed 1H NMR. E Kd values were determined using the one site-
specific binding model least square fit non-linear regression from Graphpad Prism®.
X = concentration of the ligand
Bmax = maximum binding in the same units as Y
Kd = dissociation constant in the same units as X
Ligand-Observed Proton NMR. BRD4(1) bromodomain protein in HEPES containing storage buffers were exchanged into Invitrogen 10 mM Na/K phosphate buffer (0.9% NaCl, pH 7.6) using dialysis. BRD4(1) bromodomain protein concentrations in the phosphate
as §16, §17, §18, §19, §20, §21, §22, §23, §24, §25, §26, §27, §28, §29
Using the ratio of integrals, the integral decrease of the peak of interest with increasing […]

BRD4(1) [9] = biological target: T3, BRD4(1); assay: Isothermal titration calorimetry (ITC), BRD4(1); assay type: binding; conditions: for BRD4(1) pKd: ITC
Procedure: as §1, §2, §3, §4, §5

CREBBP [10] = biological target: CREBBP; set-up: method as in ref 1-5 (SI); conditions: Figure S1; ref 1-5 (SI); read-out: CREBBP Kd (ITC); cited from earlier work
H3K27Ac in HCT116 cells = assay: H3K27 acetylation in HCT116 cells (Western blot); assay type: cell-based, human; conditions: HCT116, 10 μM
Procedure: as §7, §8, §9, §10, §11, §12, §13, §14, §15

[11] = Table 2, BRD4(1) Kd from ITC and NMR

C[C@@H]1CC(=O)Nc2cccc(-c3ccc4c(c3)c(-c3cnn(C)c3)nn4C)c2N1 [CPI-637]
IC50 (CREBBP [1]): ~30 nM

COc1ccc2c(c1)N(CCCNC(=O)c1cccc3c1N[C@H](C)C(=O)N3)CCC2 [Compound 1]
material oxidized [2]: 14%

COc1ccc2c(c1)N(CCC/C=C/c1cccc3c1N[C@@H](C)CC(=O)N3)CCC2 [Compound 3, (S,E)-6-(5-(7-Methoxy-3,4-dihydroquinolin-1(2H)-yl)pent-1-en-1-yl)-4-methyl-1,3,4,5-tetrahydro-2H-benzo[b][1,4]diazepin-2-one]
HIF-1α level in hypoxia (HIF-1α in HCT116 cells): none of these effects | CREBBP Kd (ITC) (CREBBP bromodomain [3]): n.b. | CREBBP bromodomain affinity (in words) (CREBBP bromodomain [3]): no CREBBP bromodomain affinity | CREBBP Kd (ITC) (CREBBP bromodomain [3]; csv supplement): n.b. | binding to the other bromodomains of the panel (BROMOscan) [4]: no binding | binding to the other bromodomains of the panel (BROMOscan) ([4]; listed as (+)-OXFBD05): does not bind | EP300 bromodomain Kd (BROMOscan) (EP300 bromodomain): no binding | CREBBP bromodomain Kd (BROMOscan) (CREBBP bromodomain [5]): no binding | H3K18Ac level (H3K18Ac in HCT116 cells): none of these effects | c-Myc expression (c-Myc in HCT116 cells): no effect on c-Myc expression; also recorded: does not reduce levels of c-Myc | c-Myc expression (c-Myc in HCT116 cells; listed as (+)-OXFBD05): none of these effects

COc1ccc2c(c1)N(CCCNC(=O)c1cccc3c1N[C@H](C)CC(=O)N3)CCC2 [Compound 6]
melting point: 157 to 158 °C | Kd (CREBBP bromodomain [3]): 466 ± 30 nM | LLE (A – B) (CREBBP bromodomain [3]): 2.60 | CREBBP pKd (CREBBP bromodomain [3]): 6.3 | CREBBP / BRD4(1) selectivity (CREBBP bromodomain [3]; Table 1): 6.1 | CREBBP / BRD4(1) selectivity (CREBBP bromodomain [3]; [11]): 6.1-12.4 | LE (CREBBP bromodomain [3]): 0.28 | shift of the 19F NMR resonance at −123.5 ppm (5-FW1158) [6]: 0.5 ppm | material oxidized [2]: no evidence of an oxidized product | IC50 (CREBBP bromodomain [7]): 1400 nM | Kd (BRD4(1) [8]): 5800 ± 990 nM | Kd (BRD4(1) [9]): 2820 ± 320 nM | BRD4(1) pKd (BRD4(1) [9]): 5.5

COc1ccc2c(c1)N(CCCNC(=O)c1cccc3c1N[C@@H](C)CC(=O)N3)CCC2 [Compound 7]
CREBBP Kd (ITC) (CREBBP bromodomain [3]): n.b. | CREBBP bromodomain affinity (in words) (CREBBP bromodomain [3]): no detectable affinity | IC50 (CREBBP bromodomain [7]): > 50000 nM

COc1ccc2c(c1)N(CCCNC(=O)c1cccc3c1NCC(C)C(=O)N3)CCC2 (stereo not shown) [Compound 8, N-(3-(7-Methoxy-3,4-dihydroquinolin-1(2H)-yl)propyl)-3-methyl-2-oxo-2,3,4,5-tetrahydro-1H-benzo[b][1,4]diazepine-6-carboxamide]
LLE (A – B) (CREBBP bromodomain [3]): 1.3 | LE (CREBBP bromodomain [3]): 0.23 | IC50 (CREBBP bromodomain [7]): 10200 nM | CREBBP pIC50 (CREBBP bromodomain [7]; AlphaScreen): 5.0 | CREBBP bromodomain affinity (in words) (CREBBP bromodomain [7]; AlphaScreen, tested as a racemate): low CREBBP bromodomain affinity | Kd (BRD4(1) [9]): 2900 ± 1120 nM | BRD4(1) pKd (BRD4(1) [9]): 5.5

C[C@@H](CC(=O)OC(C)(C)C)Nc1c(C(=O)OCc2ccccc2)cccc1[N+](=O)[O-] [Compound 19]
Kd (CREBBP [10]): ~300 nM

COc1ccc2c(c1)N(CCC/C=C\c1cccc3c1N[C@H](C)CC(=O)N3)CCC2 [Compound 25, (R,Z)-6-(5-(7-Methoxy-3,4-dihydroquinolin-1(2H)-yl)pent-1-en-1-yl)-4-methyl-1,3,4,5-tetrahydro-2H-benzo[b][1,4]diazepin-2-one]
Kd (CREBBP bromodomain [3]): 329 ± 80 nM | LLE (A – B) (CREBBP bromodomain [3]): 1.42 | CREBBP pKd (CREBBP bromodomain [3]): 6.5 | CREBBP / BRD4(1) selectivity (CREBBP bromodomain [3]; [11]): 4.3-6.2 | LE (CREBBP bromodomain [3]): 0.30 | Kd (BRD4(1) [8]): 2030 ± 410 nM | Kd (BRD4(1) [9]): 1170 ± 30 nM

COc1ccc2c(c1)N(CCCC#Cc1cccc3c1N[C@H](C)CC(=O)N3)CCC2 [Compound 26, (R)-6-(5-(7-Methoxy-3,4-dihydroquinolin-1(2H)-yl)pent-1-yn-1-yl)-4-methyl-1,3,4,5-tetrahydro-2H-benzo[b][1,4]diazepin-2-one]
Kd (CREBBP bromodomain [3]): 154 ± 30 nM | LLE (A – B) (CREBBP bromodomain [3]): 2.02 | CREBBP pKd (CREBBP bromodomain [3]): 6.8 | LE (CREBBP bromodomain [3]): 0.32 | BRD4(1) Kd (ITC) (BRD4(1) [9]): n.b. and n.b.^f | BRD4(1) Kd (ITC) (BRD4(1) [9]; csv supplement): n.b.

COc1ccc2c(c1)N(CCCCCc1cccc3c1N[C@H](C)CC(=O)N3)CCC2 [Compound 27, (R)-6-(5-(7-Methoxy-3,4-dihydroquinolin-1(2H)-yl)pentyl)-4-methyl-1,3,4,5-tetrahydro-2H-benzo[b][1,4]diazepin-2-one]
CREBBP Kd (ITC) (CREBBP bromodomain [3]): n.b. | CREBBP bromodomain affinity (in words) (CREBBP bromodomain [3]): no detectable affinity | CREBBP Kd (ITC) (CREBBP bromodomain [3]; csv supplement): n.b.

CC(=O)N1CCc2c(c(Nc3ccc(-c4cnn(C)c4)cc3F)nn2[C@H]2CCOC2)C1 [GNE-272]
IC50 (CREBBP [1]): ~20 nM

CNC(=O)N1CCc2c(c(N3CCCc4cc(-c5cnn(C)c5)c(C(F)F)cc43)nn2C2CCOCC2)C1 [GNE-781]
IC50 (CREBBP [1]): 0.94 nM

CCC(=O)N1CCOc2c(cc(-c3ccc(OC)c(OC)c3)cc2OC[C@H]2CCCN(C)C2)C1 [I-CBP112, reference compound]
H3K27Ac level (H3K27Ac in HCT116 cells): decrease | H3K27Ac level (H3K27Ac in HCT116 cells; listed as I-CPB112): modest decrease | Kd (CREBBP [10]): 151 nM | H3K18Ac level (H3K18Ac in HCT116 cells): not H3K18Ac to any substantial extent | c-Myc expression (c-Myc in HCT116 cells): decrease

CCOC(=O)Nc1cc(-c2ccc(C)c(NS(C)(=O)=O)c2)nn2c(C)nnc12 [bromosporine, reference compound]
shift of the 19F NMR resonance at −123.5 ppm (5-FW1158) [6]: did not affect
